Patent US20240158446A1, “CYCLIC COMPOUND HAVING SELECTIVE INHIBITORY ACTION ON KRAS OVER HRAS AND NRAS” (CHUGAI SEIYAKU KABUSHIKI KAISHA, priority 2021, published 2024)
*1 amine or outer side, *2 acyl side, *3 side chain or, on linkers, in order; H or OH if unused. Where a SMILES comes first, the peptide text is derived from it. Bridges are numbered along the chain shown (N, C = ends). [ ]: non-standard residue; d: D form. The star is where a group is joined. hPhe(3-Cl-4-CF3) = N[C@@H](CCc1ccc(C(F)(F)F)c(Cl)c1)C(=O)O; X52 = CCCN([C@@H](Cc1ccc(OC(F)(F)F)cc1)C(=O)[*:2])[*:1]; NPrPhe(4-CF3) = CCCN[C@@H](Cc1ccc(C(F)(F)F)cc1)C(=O)O; X15 = Cc1ccc(C[C@@H](C(=O)[*:2])N(CCC(C)C)[*:1])cc1; X42 = Cc1ccc(C[C@@H](C(=O)[*:2])N(CC2CCC2)[*:1])cc1; X10 = C=CCN([C@@H](Cc1ccc(C)cc1)C(=O)[*:2])[*:1]; X53 = C#CCN([C@@H](Cc1ccc(C)cc1)C(=O)[*:2])[*:1]; NMeGly(cPent) = CN[C@H](C(=O)O)C1CCCC1; Aze(3S-Me) = C[C@H]1CN[C@@H]1C(=O)O; Gly(cPent) = N[C@H](C(=O)O)C1CCCC1; cisHyp = O=C(O)[C@@H]1C[C@H](O)CN1; Hyp = O=C(O)[C@@H]1C[C@@H](O)CN1; NMeD = CN[C@@H](CC(=O)O)C(=O)O; NMeL = CN[C@@H](CC(C)C)C(=O)O; Morpholide = C1CN(*)CCO1; NMeA = CN[C@@H](C)C(=O)O; Ac5c = NC1(C(=O)O)CCCC1; Aze = O=C(O)[C@@H]1CCN1; Ethyl(2,2-F2) = FC(F)C*; Ac4c = NC1(C(=O)O)CCC1; Ac3c = NC1(C(=O)O)CC1; Sar = CNCC(=O)O

What was measured:
[1] = biological target: GDP-bound KRAS wild-type protein (Homo sapiens, UniProt P01116); experiment: Binding to KRAS by surface plasmon resonance (SPR), Single Cycle Kinetics; conditions: SPR Single Cycle Kinetics, GDP-bound KRAS wild-type protein, 1:1 binding model; read-out: KRAS KD
GDP-bound KRAS wild-type protein, sequence (P01116 whole entry): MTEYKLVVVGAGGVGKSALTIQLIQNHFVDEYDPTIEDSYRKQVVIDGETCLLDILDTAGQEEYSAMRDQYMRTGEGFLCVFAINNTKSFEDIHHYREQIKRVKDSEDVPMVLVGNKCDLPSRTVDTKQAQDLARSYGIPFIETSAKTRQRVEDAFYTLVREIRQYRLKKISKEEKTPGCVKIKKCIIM

[2] = biological target: GDP-bound NRAS wild-type protein (Homo sapiens, UniProt P01111); experiment: Binding to NRAS by surface plasmon resonance (SPR), Single Cycle Kinetics; conditions: SPR, GDP-bound NRAS wild-type protein vs GDP-bound KRAS wild-type protein
GDP-bound NRAS wild-type protein, sequence (P01111 whole entry): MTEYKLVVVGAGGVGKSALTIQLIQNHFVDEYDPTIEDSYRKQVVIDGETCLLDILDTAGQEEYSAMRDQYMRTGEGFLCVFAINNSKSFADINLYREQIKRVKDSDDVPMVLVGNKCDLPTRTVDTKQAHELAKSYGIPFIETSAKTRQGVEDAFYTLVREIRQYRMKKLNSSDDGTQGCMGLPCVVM

[3] = biological target: GDP-bound HRAS wild-type protein (Homo sapiens, UniProt P01112); experiment: Binding to HRAS by surface plasmon resonance (SPR), Single Cycle Kinetics; conditions: SPR, GDP-bound HRAS wild-type protein vs GDP-bound KRAS wild-type protein
GDP-bound HRAS wild-type protein, sequence (P01112 whole entry): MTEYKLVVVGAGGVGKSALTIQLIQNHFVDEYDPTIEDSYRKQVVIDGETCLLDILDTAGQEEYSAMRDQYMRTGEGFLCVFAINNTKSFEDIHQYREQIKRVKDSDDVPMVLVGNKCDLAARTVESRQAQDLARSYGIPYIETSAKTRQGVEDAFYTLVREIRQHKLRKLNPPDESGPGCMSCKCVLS

| Structure (SMILES) | Kd [1] [nM] | NRAS/KRAS (ratio of KD value for NRAS to KD value for KRAS) [2] | HRAS/KRAS (ratio of KD value for HRAS to KD value for KRAS) [3] |
| --- | --- | --- | --- |
| CC[C@H](C)[C@@H]1NC(=O)[C@H](CC(C)C)N(C)C(=O)C[C@@H](C(=O)N2CCOCC2)N(C)C(=O)[C@H](C2CCCC2)N(C)C(=O)C2(CCCC2)NC(=O)[C@@H]2CCCN2C(=O)[C@H](CCc2ccc(C(F)(F)F)c(Cl)c2)NC(=O)CN(C)C(=O)[C@H](Cc2ccc(C)cc2)N(CC2CCC2)C(=O)[C@@H]2CCN2C(=O)[C@H](C)N(C)C1=O [PP0083] ([NMeL]I[NMeA][Aze][X42][Sar][hPhe(3-Cl-4-CF3)]P[Ac5c][NMeGly(cPent)][NMeD]-Morpholide; lactam N-11) | 1.1 |  |  |
| C=CCN1C(=O)[C@@H]2CCN2C(=O)[C@H](C)N(C)C(=O)[C@H]([C@@H](C)CC)NC(=O)[C@H](CC(C)C)N(C)C(=O)C[C@@H](C(=O)N2CCOCC2)N(C)C(=O)[C@H](C2CCCC2)N(C)C(=O)C2(CCCC2)NC(=O)[C@@H]2CCCN2C(=O)[C@H](CCc2ccc(C(F)(F)F)c(Cl)c2)NC(=O)CN(C)C(=O)[C@@H]1Cc1ccc(C)cc1 [PP0088] ([NMeL]I[NMeA][Aze][X10][Sar][hPhe(3-Cl-4-CF3)]P[Ac5c][NMeGly(cPent)][NMeD]-Morpholide; lactam N-11) | 0.12 |  |  |
| C#CCN1C(=O)[C@@H]2CCN2C(=O)[C@H](C)N(C)C(=O)[C@H]([C@@H](C)CC)NC(=O)[C@H](CC(C)C)N(C)C(=O)C[C@@H](C(=O)N2CCOCC2)N(C)C(=O)[C@H](C2CCCC2)N(C)C(=O)C2(CCCC2)NC(=O)[C@@H]2CCCN2C(=O)[C@H](CCc2ccc(C(F)(F)F)c(Cl)c2)NC(=O)CN(C)C(=O)[C@@H]1Cc1ccc(C)cc1 [PP0090] ([NMeL]I[NMeA][Aze][X53][Sar][hPhe(3-Cl-4-CF3)]P[Ac5c][NMeGly(cPent)][NMeD]-Morpholide; lactam N-11) | 0.083 |  |  |
| CC[C@H](C)[C@@H]1NC(=O)[C@H](CC(C)C)N(C)C(=O)C[C@@H](C(=O)N2CCOCC2)N(C)C(=O)[C@H](C2CCCC2)N(C)C(=O)C2(CCCC2)NC(=O)[C@@H]2CCCN2C(=O)[C@H](CCc2ccc(C(F)(F)F)c(Cl)c2)NC(=O)CN(C)C(=O)[C@H](Cc2ccc(C)cc2)N(CCC(C)C)C(=O)CN(C)C(=O)CN(C)C1=O [PP0098] ([NMeL]I[Sar][Sar][X15][Sar][hPhe(3-Cl-4-CF3)]P[Ac5c][NMeGly(cPent)][NMeD]-Morpholide; lactam N-11) | 0.23 |  |  |
| CCCN1C(=O)[C@@H]2CCN2C(=O)[C@H](C)N(C)C(=O)[C@H]([C@@H](C)CC)NC(=O)[C@H](CC(C)C)N(C)C(=O)C[C@@H](C(=O)N2CCOCC2)N(C)C(=O)[C@H](C2CCCC2)N(C)C(=O)C2(CCCC2)NC(=O)[C@@H]2CCCN2C(=O)[C@H](CCc2ccc(C(F)(F)F)c(Cl)c2)NC(=O)CN(C)C(=O)[C@@H]1Cc1ccc(OC(F)(F)F)cc1 [PP0136] ([NMeL]I[NMeA][Aze][X52][Sar][hPhe(3-Cl-4-CF3)]P[Ac5c][NMeGly(cPent)][NMeD]-Morpholide; lactam N-11) | 1.3 |  |  |
| CCCN1C(=O)CN(C)C(=O)CN(C)C(=O)[C@H]([C@@H](C)CC)NC(=O)[C@H](CC(C)C)N(C)C(=O)C[C@@H](C(=O)N2CCOCC2)N(C)C(=O)[C@H](C2CCCC2)N(C)C(=O)C2(CCCC2)NC(=O)[C@@H]2CCCN2C(=O)[C@H](CCc2ccc(C(F)(F)F)c(Cl)c2)NC(=O)CN(C)C(=O)[C@@H]1Cc1ccc(OC(F)(F)F)cc1 [PP0137] ([NMeL]I[Sar][Sar][X52][Sar][hPhe(3-Cl-4-CF3)]P[Ac5c][NMeGly(cPent)][NMeD]-Morpholide; lactam N-11) | 0.47 |  |  |
| CCCN1C(=O)CN(C)C(=O)CN(C)C(=O)[C@H]([C@@H](C)CC)NC(=O)[C@H](CC(C)C)N(C)C(=O)C[C@@H](C(=O)N2CCOCC2)N(C)C(=O)[C@H](C2CCCC2)N(C)C(=O)C2(CCCC2)NC(=O)[C@@H]2C[C@H](OCC(F)F)CN2C(=O)[C@H](CCc2ccc(C(F)(F)F)c(Cl)c2)NC(=O)CN(C)C(=O)[C@@H]1Cc1ccc(C(F)(F)F)cc1 [PP0245] ([NMeL]I[Sar][Sar][NPrPhe(4-CF3)][Sar][hPhe(3-Cl-4-CF3)][cisHyp](Ethyl(2,2-F2))[Ac5c][NMeGly(cPent)][NMeD]-Morpholide; lactam N-11) | 0.37 |  |  |
| CCCN1C(=O)CN(C)C(=O)CN(C)C(=O)[C@H](C2CCCC2)NC(=O)[C@H](CC(C)C)N(C)C(=O)C[C@@H](C(=O)N2CCOCC2)N(C)C(=O)[C@H](C2CCCC2)N(C)C(=O)C2(CCCC2)NC(=O)[C@@H]2CCCN2C(=O)[C@H](CCc2ccc(C(F)(F)F)c(Cl)c2)NC(=O)CN(C)C(=O)[C@@H]1Cc1ccc(C(F)(F)F)cc1 [PP0251] ([NMeL][Gly(cPent)][Sar][Sar][NPrPhe(4-CF3)][Sar][hPhe(3-Cl-4-CF3)]P[Ac5c][NMeGly(cPent)][NMeD]-Morpholide; lactam N-11) | 0.25 |  |  |
| CCCN1C(=O)[C@@H]2CCN2C(=O)C2(CC2)NC(=O)[C@H]([C@@H](C)CC)NC(=O)[C@H](CC(C)C)N(C)C(=O)C[C@@H](C(=O)N2CCOCC2)N(C)C(=O)[C@H](C2CCCC2)N(C)C(=O)C2(CCCC2)NC(=O)[C@@H]2CCCN2C(=O)[C@H](CCc2ccc(C(F)(F)F)c(Cl)c2)NC(=O)CN(C)C(=O)[C@@H]1Cc1ccc(C(F)(F)F)cc1 [PP0276] ([NMeL]I[Ac3c][Aze][NPrPhe(4-CF3)][Sar][hPhe(3-Cl-4-CF3)]P[Ac5c][NMeGly(cPent)][NMeD]-Morpholide; lactam N-11) | 150 |  |  |
| CCCN1C(=O)[C@@H]2CCN2C(=O)[C@@H]2[C@@H](C)CN2C(=O)[C@H]([C@@H](C)CC)NC(=O)[C@H](CC(C)C)N(C)C(=O)C[C@@H](C(=O)N2CCOCC2)N(C)C(=O)[C@H](C2CCCC2)N(C)C(=O)C2(CCCC2)NC(=O)[C@@H]2CCCN2C(=O)[C@H](CCc2ccc(C(F)(F)F)c(Cl)c2)NC(=O)CN(C)C(=O)[C@@H]1Cc1ccc(C(F)(F)F)cc1 [PP0279] ([NMeL]I[Aze(3S-Me)][Aze][NPrPhe(4-CF3)][Sar][hPhe(3-Cl-4-CF3)]P[Ac5c][NMeGly(cPent)][NMeD]-Morpholide; lactam N-11) | 0.36 |  |  |
| CCCN1C(=O)[C@@H]2CCN2C(=O)CN(C)C(=O)[C@H]([C@@H](C)CC)NC(=O)[C@H](CC(C)C)N(C)C(=O)C[C@@H](C(=O)N(C)C)NC(=O)[C@H](C2CCCC2)N(C)C(=O)C2(CCCC2)NC(=O)[C@@H]2CCCN2C(=O)[C@H](CCc2ccc(C(F)(F)F)c(Cl)c2)NC(=O)CN(C)C(=O)[C@@H]1Cc1ccc(C(F)(F)F)cc1 [PP0385] ([NMeL]I[Sar][Aze][NPrPhe(4-CF3)][Sar][hPhe(3-Cl-4-CF3)]P[Ac5c][NMeGly(cPent)]D-NMe2; lactam N-11) | 0.37 |  |  |
| CCCN1C(=O)[C@@H]2CCN2C(=O)[C@H](C)N(C)C(=O)[C@H]([C@@H](C)CC)NC(=O)[C@H](CC(C)C)N(C)C(=O)C[C@@H](C(=O)N(C)C)N(C)C(=O)[C@H](C2CCCC2)N(C)C(=O)C2(CCC2)NC(=O)[C@@H]2C[C@@H](OCC)CN2C(=O)[C@H](CCc2ccc(C(F)(F)F)c(Cl)c2)NC(=O)CN(C)C(=O)[C@@H]1Cc1ccc(C(F)(F)F)cc1 [PP0439] ([NMeL]I[NMeA][Aze][NPrPhe(4-CF3)][Sar][hPhe(3-Cl-4-CF3)][Hyp](Et)[Ac4c][NMeGly(cPent)][NMeD]-NMe2; lactam N-11) | 0.021 |  |  |
| CCC[C@H]1C(=O)N[C@@H](C2CCCCC2)C(=O)N(C)CC(=O)N(C)[C@H]2C/C=C\CCN(C2=O)[C@@H](Cc2ccc(C)cc2)C(=O)N(C)CC(=O)N[C@@H](CCc2ccc(C(F)(F)F)c(Cl)c2)C(=O)N2C[C@H](OCC)C[C@H]2C(=O)NC2(CC(C)(C)C2)C(=O)N(C)[C@@H](CC(C)C)C(=O)N(C)[C@H](C(=O)N(C)C)CC(=O)N1C [PP3021] |  | AA (a compound having 20 or more is denoted as AA) | A (a compound having 10 or more and less than 20 is denoted as A) |
| CCC[C@H]1C(=O)N[C@@H](C2CCOCC2)C(=O)N(C)CC(=O)N(C)[C@H]2C/C=C\CCN(C2=O)[C@@H](Cc2ccc(C)cc2)C(=O)N(C)CC(=O)N[C@@H](CCc2ccc(C(F)(F)F)c(Cl)c2)C(=O)N2C[C@H](OCC)C[C@H]2C(=O)NC2(CC(C)(C)C2)C(=O)N(C)[C@@H](CC(C)(C)C)C(=O)N(C)[C@H](C(=O)N(C)C)CC(=O)N1C [PP3026] |  | A (a compound having 10 or more and less than 20 is denoted as A) | A (a compound having 10 or more and less than 20 is denoted as A) |
| CCO[C@@H]1C[C@H]2C(=O)NC3(CC(C)(C)C3)C(=O)N(C)[C@@H](C3CCCC3)C(=O)N(C)[C@H](C(=O)N(C)CC)CC(=O)N(C)[C@H]3C/C=C/c4ccc(cc4)C[C@@H](C(=O)N(C)CC(=O)N[C@@H](CCc4ccc(Cl)c(Cl)c4)C(=O)N2C1)N1CC/C=C\C[C@@H](C1=O)N(C)C(=O)CN(C)C(=O)[C@H]([C@@H](C)CC)NC3=O [PP3056] |  | A (a compound having 10 or more and less than 20 is denoted as A) | A (a compound having 10 or more and less than 20 is denoted as A) |
| CCO[C@@H]1C[C@H]2C(=O)NC3(CC(C)(C)C3)C(=O)N(C)[C@@H](C3CCCC3)C(=O)N(C)[C@H](C(=O)N(C)C)CC(=O)N(C)[C@H]3CCCCC/C=C/c4ccc(cc4)C[C@@H](C(=O)N(C)CC(=O)N[C@@H](CCc4ccc(Cl)c(Cl)c4)C(=O)N2C1)N1CC/C=C\C[C@@H](C1=O)N(C)C(=O)CN(C)C(=O)[C@H]([C@@H](C)CC)NC3=O [PP3057] |  | A (a compound having 10 or more and less than 20 is denoted as A) | B (a compound having 3 or more and less than 10 is denoted as B) |
